{"source": "patent US20250205201A1", "about": "“USE OF L-ERGOTHIONEINE FOR ALLEVIATING AND PREVENTING AGE-RELATED LENS DEGENERATION” (NANJING NUTRABUILDING BIO-TECH CO., LTD., priority 2023, published 2025)", "format_in_all_cases": "in vivo, rat (Sprague-Dawley)", "key": {"rats' lenses (opacity)": {"system": "rats' lenses (opacity)", "assay": "Opacity distribution of lenses in sodium selenite-induced aged rats (ImageJ)", "details": "2 or 10 mg/kg/d by gavage once daily for 6 months, vs non-supplement group", "method": "Ten-day-old suckling rats (Sprague-Dawley, SD) were maintained under the barrier conditions in a temperature-controlled environment and fed a commercial mouse chow. All rat pups received a single subcutaneous injection of sodium selenite (20 μmol/kg body weight) on postpartum day 11. The opacity distribution (by surface plot and plot profile) of the rats' lenses were determined from the captured images by ImageJ analysis software after feeding 7 days. Testing opacity distribution aimed to show whether the formation of age-related lens degeneration is successful. The rats were then injected of sodium selenite every two weeks. And then these induced successfully rats were fed a commercial mouse chow for 15 months if succeeding. Then these induced successfully rats were randomly divided into three groups: (1) non-supplement group (Group 1, Con, n=10); (2) L-ergothioncine supplement group with low dosage (Group 2, L-ergothioneine, 2 mg/kg/d, n=10); (3) L-ergothioncine supplement group with high dosage (Group 3, L-ergothioneine, 10 mg/kg/d, n=10). All rats were administered L-ergothioneine for once daily by gavage in normal saline solution for 6 months. The opacity distribution (by surface plot and plot profile) of the rats' lenses were observed from the captured images by ImageJ analysis software at the end of this study."}, "[1]": {"system": "intracellular chronic reactive oxygen species (ROS) in lens epithelial cells (LEC)", "assay": "Cytosolic ROS level in isolated rat lenses (H2-DCFH-DA staining) after 6 months of supplementation", "details": "FIG. 1", "method": "(§1) Ten-day-old suckling rats (Sprague-Dawley, SD) were maintained under the barrier conditions in a temperature-controlled environment and fed a commercial mouse chow. All rat pups received a single subcutaneous injection of sodium selenite (20 μmol/kg body weight) on postpartum day 11. The opacity distribution (by surface plot and plot profile) of the rats' lenses were determined from the captured images by ImageJ analysis software after feeding 7 days. Testing opacity distribution aimed to show whether the formation of age-related lens degeneration is successful. The rats were then injected of sodium selenite every two weeks. And then these induced successfully rats were fed a commercial mouse chow for 15 months if succeeding.\nThen these induced successfully rats were randomly divided into three groups: (1) non-supplement group (Group 1, Con, n=10); (2) L-ergothioncine supplement group with low dosage (Group 2, L-ergothioneine, 2 mg/kg/d, n=10); (3) L-ergothioncine supplement group with high dosage (Group 3, L-ergothioneine, 10 mg/kg/d, n=10). All rats were administered L-ergothioneine for once daily by gavage in normal saline solution for 6 months. The opacity distribution (by surface plot and plot profile) of the rats' lenses were observed from the captured images by ImageJ analysis software at the end of this study. […]"}, "Nrf2": {"system": "Nrf2", "assay": "Nrf2 mRNA level in LECs by real-time PCR after 6 months of supplementation", "details": "FIG. 2", "method": "as §1, with “succeeding. […]” for “succeeding.”\nNrf2 dependent antioxidant protection system plays a crucial role in scavenging ROS generated during various biochemical reactions. […] Real-time PCR was measured and performed with the following primers: Nrf2 forward 5′-[…]-3′. RNA samples were reverse-transcribed to cDNA and subjected to quantitative PCR, performed with a Light Cycler 96 Real-Time PCR System using the AceQ qPCR SYBR Green Master Mix. […]"}}, "data": [{"smiles": "C[N+](C)(C)[C@@H](Cc1c[nH]c(=S)[nH]1)C(=O)[O-]", "note": "[ergothioneine, L-ergothioneine]", "values": [{"measurement": "opacity of lens (opacity distribution by surface plot and plot profile)", "setting": "rats' lenses (opacity)", "result": "effectively ameliorate or alleviate the opacity of lens"}, {"measurement": "efficacy in ROS scavenging, high-dose group compared to low-dose group", "setting": "[1]; 10 mg/kg/d vs 2 mg/kg/d by gavage for 6 months", "result": "approximately double"}, {"measurement": "reduction of intracellular chronic ROS levels in LEC compared to the non-supplementation group", "setting": "[1]; 2 and 10 mg/kg/d by gavage for 6 months", "result": "more than 25%"}, {"measurement": "increase of Nrf2 mRNA level in LECs over placebo", "setting": "Nrf2; high-dose group, 10 mg/kg/d by gavage for 6 months", "result": "around 180%"}, {"measurement": "increase of Nrf2 mRNA level in LECs compared to placebo", "setting": "Nrf2; low-dose group, 2 mg/kg/d by gavage for 6 months", "result": "~50", "unit": "%"}]}]}
